{"source": "patent US8952024B2", "about": "“Herbicidal pyrimidone derivatives” (E I du Pont de Nemours and Company, priority 2009, dated 2015)", "test_in_all_cases": "Test B pre-/postemergence plant response", "type_in_all_cases": "in vivo", "key": {"[1]": {"system": "Italian ryegrass (Lolium multiflorum)", "from_the_text": "(§1) Seeds of plant species selected from blackgrass (Alopecurus myosuroides), downy bromegrass (Bromus tectorum), green foxtail (Setaria viridis), Italian ryegrass (Lolium multiflorum), wheat (Triticum aestivum), wild oat (Avena fatua), deadnettle (henbit deadnettle, Lamium amplexicaule), galium (catchweed bedstraw, Galium aparine), bermudagrass (Cynodon dactylon), Surinam grass (Brachiaria decumbens), cocklebur (Xanthium strumarium), corn (Zea mays), large crabgrass (Digitaria sanguinalis), woolly cupgrass (Eriochloa villosa), giant foxtail (Setaria faberii), goosegrass (Eleusine indica), johnsongrass (Sorghum halepense), kochia (Kochia scoparia), lambsquarters (Chenopodium album), morningglory (Ipomoea coccinea), nightshade (eastern black nightshade, Solanum ptycanthum), yellow nutsedge (Cyperus esculentus), pigweed (Amaranthus retroflexus), ragweed (common ragweed, Ambrosia elatior), Russian thistle (Salsola kali), soybean (Glycine max), sunflower (common oilseed sunflower, Helianthus annuus) and velvetleaf (Abutilon theophrasti) were planted into a blend of loam soil and sand and treated preemergence with test compounds formulated in a non-phytotoxic solvent mixture which included a surfactant.\n(§2) At the same time, plants selected from these crop and weed species and also winter barley (Hordeum vulgare), canarygrass (Phalaris minor), chickweed (Stellaria media) and windgrass (Apera spica-venti) were planted in pots containing Redi-Earth® planting medium (Scotts Company, 14111 Scottslawn Road, Marysville, Ohio 43041) comprising spaghnum peat moss, vermiculite, wetting agent and starter nutrients and treated with postemergence applications of some of the test chemicals formulated in the same manner. Plants ranged in height from 2 to 18 cm (1- to 4-leaf stage) for postemergence treatments.\n(§3) Treated plants and controls were maintained in a greenhouse for 13 to 15 days, after which time all treated plants were visually evaluated and compared to controls. Plant response ratings, summarized in Table B, are based on a scale of 0 to 100 where 0 is no effect and 100 is complete control. A dash (-) response means no test result."}, "[2]": {"system": "Surinam grass (Brachiaria decumbens)", "from_the_text": "as §1, §2, §3"}, "[3]": {"system": "blackgrass (Alopecurus myosuroides)", "from_the_text": "as §1, §2, §3"}, "corn (Zea mays)": {"system": "corn (Zea mays)", "from_the_text": "as §1, §2, §3"}, "[4]": {"system": "downy bromegrass (Bromus tectorum)", "from_the_text": "as §1, §2, §3"}, "[5]": {"system": "giant foxtail (Setaria faberii)", "from_the_text": "as §1, §2, §3"}, "[6]": {"system": "johnsongrass (Sorghum halepense)", "from_the_text": "as §1, §2, §3"}, "kochia (Kochia scoparia)": {"system": "kochia (Kochia scoparia)", "from_the_text": "as §1, §2, §3"}, "[7]": {"system": "pigweed (Amaranthus retroflexus)", "from_the_text": "as §1, §2, §3"}, "[8]": {"system": "ragweed (common ragweed, Ambrosia elatior)", "from_the_text": "as §1, §2, §3"}, "soybean (Glycine max)": {"system": "soybean (Glycine max)", "from_the_text": "as §1, §2, §3"}, "[9]": {"system": "velvetleaf (Abutilon theophrasti)", "from_the_text": "as §1, §2, §3"}, "[10]": {"system": "woolly cupgrass (Eriochloa villosa)", "from_the_text": "as §1, §2, §3"}, "[11]": {"details": "31 g ai/ha, postemergence, scale 0 to 100, 0 is no effect, 100 is complete control"}, "[12]": {"details": "62 g ai/ha, postemergence, 0 is no effect, 100 is complete control, 13 to 15 days"}, "[13]": {"details": "Postemergence, 125 g ai/ha, visual rating after 13 to 15 days, scale 0 (no effect) to 100 (complete control)"}, "[14]": {"details": "Postemergence, 250 g ai/ha, scale 0 to 100 (0 no effect, 100 complete control)"}}}
{"smiles": "O=C1CCCC(O)=C1C(=O)c1cnc(-c2ccccc2Br)n(-c2ccccc2)c1=O", "note": "[Compound 71]", "values": [{"measurement": "Plant response rating, Ryegrass, Italian", "setting": "[1]; [11]", "result": 0}, {"measurement": "Ryegrass, Italian plant response rating (0 to 100 scale)", "setting": "[1]; [12]", "result": 0}, {"measurement": "Plant response rating, Ryegrass, Italian", "setting": "[1]; [13]", "result": 0}, {"measurement": "Plant response rating, Ryegrass, Italian", "setting": "[1]; [14]", "result": 5}, {"measurement": "Plant response rating, Surinam Grass", "setting": "[2]; [11]", "result": 50}, {"measurement": "Surinam Grass plant response rating (0 to 100 scale)", "setting": "[2]; [12]", "result": 55}, {"measurement": "Plant response rating, Surinam Grass", "setting": "[2]; [13]", "result": 65}, {"measurement": "Plant response rating, Surinam Grass", "setting": "[2]; [14]", "result": 85}, {"measurement": "Plant response rating, Blackgrass", "setting": "[3]; [11]", "result": 0}, {"measurement": "Blackgrass plant response rating (0 to 100 scale)", "setting": "[3]; [12]", "result": 0}, {"measurement": "Plant response rating, Blackgrass", "setting": "[3]; [13]", "result": 0}, {"measurement": "Plant response rating, Blackgrass", "setting": "[3]; [14]", "result": 5}, {"measurement": "Plant response rating, Corn", "setting": "corn (Zea mays); [11]", "result": 0}, {"measurement": "Corn plant response rating (0 to 100 scale)", "setting": "corn (Zea mays); [12]", "result": 0}, {"measurement": "Plant response rating, Corn", "setting": "corn (Zea mays); [13]", "result": 0}, {"measurement": "Plant response rating, Corn", "setting": "corn (Zea mays); [14]", "result": 15}, {"measurement": "Plant response rating, Bromegrass, Downy", "setting": "[4]; [11]", "result": 0}, {"measurement": "Bromegrass, Downy plant response rating (0 to 100 scale)", "setting": "[4]; [12]", "result": 5}, {"measurement": "Plant response rating, Bromegrass, Downy", "setting": "[4]; [13]", "result": 10}, {"measurement": "Plant response rating, Bromegrass, Downy", "setting": "[4]; [14]", "result": 30}, {"measurement": "Plant response rating, Foxtail, Giant", "setting": "[5]; [11]", "result": 20}, {"measurement": "Foxtail, Giant plant response rating (0 to 100 scale)", "setting": "[5]; [12]", "result": 75}, {"measurement": "Plant response rating, Foxtail, Giant", "setting": "[5]; [13]", "result": 80}, {"measurement": "Plant response rating, Foxtail, Giant", "setting": "[5]; [14]", "result": 95}, {"measurement": "Plant response rating, Johnsongrass", "setting": "[6]; [11]", "result": 65}, {"measurement": "Johnsongrass plant response rating (0 to 100 scale)", "setting": "[6]; [12]", "result": 75}, {"measurement": "Plant response rating, Johnsongrass", "setting": "[6]; [13]", "result": 98}, {"measurement": "Plant response rating, Johnsongrass", "setting": "[6]; [14]", "result": 100}, {"measurement": "Plant response rating, Kochia", "setting": "kochia (Kochia scoparia); [11]", "result": 0}, {"measurement": "Kochia plant response rating (0 to 100 scale)", "setting": "kochia (Kochia scoparia); [12]", "result": 0}, {"measurement": "Plant response rating, Kochia", "setting": "kochia (Kochia scoparia); [13]", "result": 25}, {"measurement": "Plant response rating, Kochia", "setting": "kochia (Kochia scoparia); [14]", "result": 65}, {"measurement": "Plant response rating, Pigweed", "setting": "[7]; [11]", "result": 85}, {"measurement": "Pigweed plant response rating (0 to 100 scale)", "setting": "[7]; [12]", "result": 85}, {"measurement": "Plant response rating, Pigweed", "setting": "[7]; [13]", "result": 98}, {"measurement": "Plant response rating, Pigweed", "setting": "[7]; [14]", "result": 100}, {"measurement": "Plant response rating, Ragweed", "setting": "[8]; [11]", "result": 75}, {"measurement": "Ragweed plant response rating (0 to 100 scale)", "setting": "[8]; [12]", "result": 80}, {"measurement": "Plant response rating, Ragweed", "setting": "[8]; [13]", "result": 80}, {"measurement": "Plant response rating, Ragweed", "setting": "[8]; [14]", "result": 95}, {"measurement": "Plant response rating, Soybean", "setting": "soybean (Glycine max); [11]", "result": 65}, {"measurement": "Soybean plant response rating (0 to 100 scale)", "setting": "soybean (Glycine max); [12]", "result": 70}, {"measurement": "Plant response rating, Soybean", "setting": "soybean (Glycine max); [13]", "result": 95}, {"measurement": "Plant response rating, Soybean", "setting": "soybean (Glycine max); [14]", "result": 98}, {"measurement": "Plant response rating, Velvetleaf", "setting": "[9]; [11]", "result": 75}, {"measurement": "Velvetleaf plant response rating (0 to 100 scale)", "setting": "[9]; [12]", "result": 85}, {"measurement": "Plant response rating, Velvetleaf", "setting": "[9]; [13]", "result": 90}, {"measurement": "Plant response rating, Velvetleaf", "setting": "[9]; [14]", "result": 95}, {"measurement": "Plant response rating, Cupgrass, Woolly", "setting": "[10]; [11]", "result": 10}, {"measurement": "Cupgrass, Woolly plant response rating (0 to 100 scale)", "setting": "[10]; [12]", "result": 45}, {"measurement": "Plant response rating, Cupgrass, Woolly", "setting": "[10]; [13]", "result": 85}, {"measurement": "Plant response rating, Cupgrass, Woolly", "setting": "[10]; [14]", "result": 100}]}
